The values that follow come from patent publication US20170051149A1, “AZOARYLS AS REVERSIBLY MODULATABLE TUBULIN INHIBITORS” (ECOLE NORMALE SUPERIEURE DE LYON, priority 2014, published 2017).

The nature of data set [1]: thermal reversion halflife of spontaneous cis->trans isomerisation. The format is physicochemical.
Data set [2] can be described thus: photoisomerisation: photostationary state, calculated φ(λ) and E(λ), reversible cycling. The format is physicochemical. As to the method: In a simple analysis of the PSS(λ) and E(λ), it was approximated that ΦEZ and ΦZE (the quantum efficiencies of the photoisomerisations trans->cis and cis->trans, respectively) are equal and independent of wavelength, and also that the kinetics of spontaneous reversion could be ignored (eg. high-intensity light source). A function φ(λ) was then calculated as per: […]
If ΦEZ and ΦZE are equal and independent of wavelength, φ(λ) gives the true PSS(λ). The wavelength independence of ΦEZ and ΦZE may be an acceptable approximation in regions of relatively strong absorption within the visible spectrum. Their equality may also be an acceptable assumption: since if ΦEZ and ΦZE are unequal but only depend weakly on wavelength in regions of relatively strong absorption, then φ(λ) is a transform of the true PSS(λ); this transform preserves the features of PSS(λ) which were most desired for evaluation in this study as long as ΦEZ and ΦZE are not too different (eg less than a factor of ten difference). Indeed, the calculated φ(λ) were later confirmed by in cellulo experiments to give reliable indications of favourable wavelengths for bulk trans->cis and bulk cis->trans photoisomerisation, which is the benchmark for a suitable analysis of the PSS(λ). The advantages of calculating φ(λ) rather than exhaustively measuring the PSS(λ) experimentally are that (a) the throughput is much faster, (b) the true PSS(λ) may be difficult to achieve at weakly-absorbing wavelengths or with fast-relaxing compounds, (c) the true PSS(λ) may be difficult to measure accurately at wavelengths where one isomer strongly dominates the sample even if both are relatively strongly absorbing, and (d) the variation of PSS(λ) with changes in the local biological microenvironment (polarity, pH etc) may anyway be larger than the error incurred by the assumption φ(λ)═PSS(λ).
Also following the assumption that ΦEZ and ΦZE are equal and independent of wavelength, a photoisomerisation efficiency E(λ) was calculated as per:
E(λ)=[εE(λ)+εZ(λ)]/[εE(390)+εZ(390)]
Larger values of E(λ) therefore denote higher efficiency photoisomerisation (less photon flux is required to approach the PSS(λ)). E(λ) was parametrised to the absorption coefficients at 390 nm, since typically that wavelength gave satisfactorily strong absorption and efficient photoisomerisation. It should be noted that E(λ) are not intercomparable between different compounds. This reflects the realistic scenario that the ΦEZ (or the ΦZE) of two arbitrarily chosen compounds may differ by a significant amount, even if the approximation that ΦEZ and ΦZE are equal and independent of wavelength applies independently to each compound.
A(λstrong) was measured over time in the UV-Vis cuvette in non-degassed PBS left open to the atmosphere, […], at 37° C., while the monochromator was used to apply λirrad alternating between two values λ1 and λ2, chosen to induce net trans->cis and net cis->trans isomerisation respectively. Typical results are presented for compound I.1 (FIG. 3). The absorbance of I.1 (18 μM) was measured at λstrong=378 nm, while the irradiating wavelength was held alternately at λ1=388 nm (50 s; bulk trans->cis) then λ2=508 nm (180 s, bulk cis->trans). Higher absorbance corresponds to a greater amount of trans isomer: an absorbance of 0.27 here corresponds to an approximately 5:1 ratio of trans:cis isomer in the sample, and an absorbance of 0.12 here corresponds to an approximately 1:2 ratio of trans:cis isomer in the sample. […] Typically, compounds of the invention could be bulk-photoisomerised hundreds of times over a timescale of hours (50 representative cycles are shown in FIG. 3 for I.1), such that the majority species in a sample was photocontrollably alternated between the trans-isomer and the cis-isomer. […]

SMILES strings stand for the structures. A value given as a limit tells only on which side of the number the result lay.

In the case of `COc1ccc(N=Nc2cc(OC)c(OC)c(OC)c2)cc1O` [I.1, 2-methoxy-5-((3,4,5-trimethoxyphenyl)diazenyl)phenol], the “τ, reversion time” value was 8.4 min in data set [1] (PBS pH = 6, 20% MeCN) and 6.2 min in data set [1] (PBS pH = 7.4, 20% MeCN). Also, in data set [2], the “E(388)/E(508)” value is recorded as 0.04. In addition, the “E(λ)” value in data set [2] (390 nm) was 1.00; in data set [2] (410 nm), 0.59; in data set [2] (475 nm), 0.14; in data set [2] (490 nm), 0.08; in data set [2] (505 nm), 0.04; in data set [2] (525 nm) it was 0.02. Besides, the “% cis after photoisomerisation from all-trans” value in data set [2] (390 nm light) was “approx. 90%”; in data set [2] (450 nm light), “approx. 50%”. Besides, the “φ(490)” value in data set [2] (calculated from εE and εZ) is on record as 0.30. Also, the “φ(505)” value in data set [2] (calculated from εE and εZ) is reported as 0.23. Moreover, in data set [2] (subsequent 505 nm light), the “% cis after subsequent irradiation” value is on record as “approx. 20%”.

For `CCN(CC)c1ccc2c(-c3ccccc3C(=O)N3CCN(CCCOc4c(N=Nc5cc(OC)c(OC)c(OC)c5)ccc(OC)c4C)CC3)c3ccc(=[N+](CC)CC)cc-3oc2c1.CCN(CC)c1ccc2c(-c3ccccc3C(=O)N3CCN(CCCOc4c(N=Nc5cc(OC)c(OC)c(OC)c5)ccc(OC)c4C)CC3)c3ccc(=[N+](CC)CC)cc-3oc2c1.O=C[O-].O=C[O-]` [I.25, N-(6-(diethylamino)-9-(2-(4-(3-(3-methoxy-2-methyl-6-((3,4,5-trimethoxyphenyl)diazenyl)phenoxy)propyl)piperazine-1-carbonyl)phenyl)-3H-xanthen-3-ylidene)-N-ethylethanaminium bis(formate) salt], in data set [1] (PBS pH = 7.4, 20% MeCN), the “τ, reversion time” value was 16.2 min. Besides, the “% trans” value in data set [2] (irradiation at 554 nm, 33 μM, PBS 20% MeCN, 37° C.) was 100%. Moreover, in data set [2] (state before 550 nm irradiation), the “% cis before photorelaxation” value is on record as over 70%. Besides, in data set [2] (very low intensity light of 550 nm), the “% trans after photorelaxation” value is over 99%.
